Experimental findings from article PMC3914206 are described below.

Structures are written as SMILES.

What all share (type): binding
Holding throughout (conditions): Compound Concentration 10 µM

The target of test [1] is T1, panel of 442 kinases (Homo sapiens, UniProt Q04771).
T1 construct: purchased KINOMEscan
T1 sequence (Q04771 21-509): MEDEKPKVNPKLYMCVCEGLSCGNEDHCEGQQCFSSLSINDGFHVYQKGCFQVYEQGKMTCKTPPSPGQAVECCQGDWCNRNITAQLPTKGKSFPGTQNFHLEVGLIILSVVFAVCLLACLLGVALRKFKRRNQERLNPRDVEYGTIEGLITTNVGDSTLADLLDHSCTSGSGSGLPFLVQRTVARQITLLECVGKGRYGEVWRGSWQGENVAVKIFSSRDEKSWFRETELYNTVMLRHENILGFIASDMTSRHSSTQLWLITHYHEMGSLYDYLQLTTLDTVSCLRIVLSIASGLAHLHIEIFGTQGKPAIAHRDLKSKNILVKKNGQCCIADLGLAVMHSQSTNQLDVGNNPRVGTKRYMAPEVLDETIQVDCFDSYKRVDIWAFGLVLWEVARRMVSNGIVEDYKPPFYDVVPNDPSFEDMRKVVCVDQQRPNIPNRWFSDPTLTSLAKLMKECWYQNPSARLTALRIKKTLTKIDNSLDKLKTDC
The text has this:
(§1) We assessed the selectivity of members of this scaffold using the KINOMEscan methodology across a near comprehensive panel of 442 kinases [[18,27]].

Test [2] concerns the target T2, panel of 442 kinases (Homo sapiens, UniProt P27448).
T2 construct: purchased KINOMEscan
Description: as §1

The target of test [3] is T3, panel of 442 kinases (Homo sapiens, UniProt Q99640).
T3 construct: purchased KINOMEscan
T3 sequence (Q99640 1-499): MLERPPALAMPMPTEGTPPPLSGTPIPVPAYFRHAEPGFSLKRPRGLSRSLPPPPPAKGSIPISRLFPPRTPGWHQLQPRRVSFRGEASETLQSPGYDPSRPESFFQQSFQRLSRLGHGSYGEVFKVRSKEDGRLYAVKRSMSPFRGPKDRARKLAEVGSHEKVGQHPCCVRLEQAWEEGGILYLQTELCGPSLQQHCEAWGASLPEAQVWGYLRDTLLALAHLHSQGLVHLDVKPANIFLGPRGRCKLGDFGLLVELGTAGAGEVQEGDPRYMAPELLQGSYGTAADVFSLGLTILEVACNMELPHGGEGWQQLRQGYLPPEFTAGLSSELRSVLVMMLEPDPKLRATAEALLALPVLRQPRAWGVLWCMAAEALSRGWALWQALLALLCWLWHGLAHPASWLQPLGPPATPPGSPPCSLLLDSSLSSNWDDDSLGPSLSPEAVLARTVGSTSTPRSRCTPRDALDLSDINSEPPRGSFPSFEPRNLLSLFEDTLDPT
Description: as §1

T2 sequence (P27448 whole entry): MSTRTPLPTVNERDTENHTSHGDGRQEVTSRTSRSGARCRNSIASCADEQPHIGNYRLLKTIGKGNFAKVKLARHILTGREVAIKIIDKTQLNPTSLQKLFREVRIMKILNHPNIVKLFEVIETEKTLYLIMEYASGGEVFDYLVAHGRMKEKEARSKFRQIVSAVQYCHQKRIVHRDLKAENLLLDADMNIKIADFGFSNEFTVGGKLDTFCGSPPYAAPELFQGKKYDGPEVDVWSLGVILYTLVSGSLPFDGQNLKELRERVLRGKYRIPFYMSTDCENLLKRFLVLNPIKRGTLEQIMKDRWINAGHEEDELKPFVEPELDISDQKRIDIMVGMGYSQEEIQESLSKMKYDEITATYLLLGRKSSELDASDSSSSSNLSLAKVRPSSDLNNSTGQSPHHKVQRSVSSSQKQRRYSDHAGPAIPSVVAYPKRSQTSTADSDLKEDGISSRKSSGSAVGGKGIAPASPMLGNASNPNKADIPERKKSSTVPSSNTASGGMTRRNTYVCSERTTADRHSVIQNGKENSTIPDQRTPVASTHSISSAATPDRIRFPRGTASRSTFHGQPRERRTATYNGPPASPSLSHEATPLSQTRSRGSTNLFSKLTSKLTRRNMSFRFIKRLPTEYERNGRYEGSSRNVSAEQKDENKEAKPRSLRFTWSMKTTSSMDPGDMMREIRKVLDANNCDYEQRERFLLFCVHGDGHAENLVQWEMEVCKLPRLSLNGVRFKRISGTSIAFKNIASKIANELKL

On to `COc1cc(C(=O)N2CCC(N3CCN(C)CC3)CC2)ccc1Nc1ncc2c(n1)N(C)c1ccccc1C(=O)N2C` [15 (LRRK2-IN-1)], for which the “KINOMEscan: ACVR1” value in test [1] is on record as 98. For the same compound, the “KINOMEscan: MARK3” value in test [2] is listed as 98. Moreover, the “KINOMEscan: PKMYT1” value in test [3] came out at 80.

With `COc1cc(C(=O)N2CCC(N3CCN(C)CC3)CC2)ccc1Nc1ncc2c(n1)N1CCc3cccc(c31)C(=O)N2C` [Compound 24], in test [3], the “KINOMEscan: PKMYT1” value came to 70.

Consider `COc1cc(C(=O)N2CCC(N3CCN(C)CC3)CC2)ccc1Nc1ncc2c(n1)N(C1CCCC1)c1ccccc1C(=O)N2C` [Compound 25, 11-cyclopentyl-2-((2-methoxy-4-(4-(4-methylpiperazin-1-yl)piperidine-1-carbonyl)phenyl)amino)-5-methyl-5H-benzo[e]pyrimido[5,4-b][1,4]diazepin-6(11H)-one], for which, in test [1], the “KINOMEscan: ACVR1” value is given as 100. In addition, the “KINOMEscan: MARK3” value in test [2] turned out to be 100. Further, in test [3], the “KINOMEscan: PKMYT1” value was 100.

As for `CCOc1cc(C(=O)N2CCC(N3CCN(C)CC3)CC2)ccc1Nc1ncc2c(n1)N(C1CCCC1)c1ccccc1C(=O)N2C` [Compound 26], the “KINOMEscan: ACVR1” value in test [1] is recorded as 100. The “KINOMEscan: MARK3” value in test [2] amounted to 100. Also, the “KINOMEscan: PKMYT1” value in test [3] is reported as 100.
